Data on four sequences can be found in paper PMC3060972 (Peptides, 2011).

Assay [1] concerns E. coli. Put plainly: Membrane permeability by propidium iodide. Format: cell-based. The conditions noted are these: qualitative comparison with wild type BF2; PI uptake in E. coli.
The test system of assay [2] is E. coli. Put plainly: Radial diffusion assay. Format: cell-based. The conditions noted are these: qualitative comparison with wild type BF2.

With TRSSRAGLQFAPGRVHRLLRK [P11A/V12P], in assay [1], the “MEMBRANE PERMEABILIZATION compared to wild type” value is recorded as “SIMILAR”. Further, the “ANTIMICROBIAL ACTIVITY compared to wild type” value in assay [2] is recorded as “LOWER”.
For TRSSRAGLQFAVGRPHRLLRK [P11A/V15P], the “MEMBRANE PERMEABILIZATION compared to wild type” value in assay [1] is given as “SIMILAR”. Moreover, in assay [2], the “ANTIMICROBIAL ACTIVITY compared to wild type” value is recorded as “LOWER”.
The corresponding values for TRSSRAGLQFAVGRVHRLLRK [P11A] are “HIGHER” and “LOWER”.
On the same counts, the results for TRSSRAPLQFAVGRVHRLLRK [P11A/G7P] are “HIGHER” and “SIMILAR”.
